Source: ChEMBL document CHEMBL1130708, “Cytotoxic cycloartane-type triterpenes from Combretum quadrangulare” (1998)

assay: Compound was tested for cytotoxic activity against murine colon 26-L5 carcinoma cells; assay type: functional; conditions: Mus musculus; read-out: ED50 (the source's name)

SMILES | EC50 [µM]
COC(=O)[C@]1(C)[C@@H](O)C[C@H](O)[C@]23C[C@]24CC[C@]2(C)[C@@H]([C@H](C=O)C/C=C/C(C)(C)O)CC[C@@]2(C)[C@@H]4CC[C@@H]13 | 43.8
C=C(CC[C@@H](C)[C@H]1CC[C@@]2(C)[C@@H]3CC[C@H]4[C@](C)(C(=O)O)[C@@H](O)C[C@H](OC(C)=O)[C@@]45C[C@@]35CC[C@]12C)C(C)C | 57.6
C=C(C)[C@@H]1CC[C@H]([C@H]2CC[C@@]3(C)[C@@H]4CC[C@H]5[C@](C)(C(=O)OC)[C@@H](O)C[C@H](O)[C@@]56C[C@@]46CC[C@]23C)[C@@H](OC)O1 | 18.1
C=C(CC[C@@H](C)[C@H]1CC[C@@]2(C)[C@@H]3CC[C@H]4[C@](C)(C(=O)O)[C@@H](O)C[C@H](O)[C@@]45C[C@@]35CC[C@]12C)C(C)C | 49.6
C=C(CC[C@@H](C)[C@H]1CC[C@@]2(C)[C@@H]3CC[C@H]4[C@](C)(C(=O)OC)[C@@H](OC(C)=O)C[C@@H]5O[C@H](C[C@]12C)[C@]31C[C@]541)C(C)C | 77.8
C=C(CC[C@@H](C)[C@H]1CC[C@@]2(C)[C@@H]3CC[C@H]4[C@](C)(C(=O)O)[C@@H](O)CC[C@@]45C[C@@]35CC[C@]12C)C(C)C | 62.4
COC(=O)[C@]1(C)[C@@H](O)C[C@H](O)[C@]23C[C@]24CC[C@]2(C)[C@@H]([C@H](C=O)C/C=C/C(C)(C)OO)CC[C@@]2(C)[C@@H]4CC[C@@H]13 | 9.54
C=C(CC[C@@H](C)[C@H]1CC[C@@]2(C)[C@@H]3CC[C@H]4[C@](C)(C(=O)O)[C@@H](O)CC(=O)[C@@]45C[C@@]35CC[C@]12C)C(C)C | 58.6
C=C(CC[C@@H](C)[C@H]1CC[C@@]2(C)[C@@H]3CC[C@H]4[C@](C)(C(=O)O)[C@@H](OC(C)=O)C[C@H](OC(C)=O)[C@@]45C[C@@]35CC[C@]12C)C(C)C | 52.5
C=C(CC[C@@H](C)[C@H]1CC[C@@]2(C)[C@@H]3CC[C@H]4[C@](C)(C(=O)OC)[C@@H](O)C[C@@H]5O[C@H](C[C@]12C)[C@]31C[C@]541)C(C)C | 5.42
